Laboratory results reported in patent US20020137929A1, “1 - (3-heterocyclylphenyl) isothiourea, -isourea, -guanidine and -amidine herbicidal agents” (Intellectual Property Department, BASF Aktiengesellschaft, priority 1998, published 2002).

What was measured:
MOOVA (Monochoria) = experiment: Postemergence weed control under flooded paddy conditions; format: in vivo, Monochoria vaginalis; settings: postemergence weeds
How it was run: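 With weeds 3 to 5 cm tall and rice at the 1.5 to 2.5 leaf stage, containers were flooded and water held 1.5 to 3 cm above soil. Compounds in 50/50 v/v aqueous/acetone went into the flood water at about 0.0313 to 0.500 kg/ha a.i. Effects were visually rated 0–9 against controls after three to four weeks in the greenhouse.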

[1] = test system: GLXMAW (Soybean, Williams); experiment: Preemergence herbicidal evaluation; format: in vivo, Glycine max, (L.) Merr. cv Williams; settings: rated 4-5 weeks after treatment
How it was run: (§1)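 Preemergence soil application of compound, sprayed in aqueous acetone at rates equivalent to about 0.0156 to 0.500 kg per hectare onto freshly sown cups. Plant response was judged by eye on a 0-9 scale four to five weeks later.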

GALAP (Galium) = experiment: Preemergence herbicidal evaluation; format: in vivo, Galium aparine; settings: rated 4-5 weeks after treatment
How it was run: as §1

[2] = test system: CHEAL (Lambsquarters, Common); experiment: Postemergence herbicidal evaluation; format: in vivo, Chenopodium album; settings: for CHEAL herbicidal rating: postemergence
How it was run: (§2)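 Two-week-old seedlings sprayed with compound in 50/50 acetone/water plus 0.5% TWEEN 20, at about 0.0156 to 0.500 kg/ha, nozzle at 40 psi. Kept in greenhouse; rated visually 4-5 weeks after treatment on a 0-9 scale versus control, repeat tests averaged.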

[3] = test system: IPOHE (Morningglory, Ivyleaf); experiment: Postemergence herbicidal evaluation; format: in vivo, Ipomoea hederacea; settings: for IPOHE herbicidal rating: postemergence
How it was run: as §2

ECHCG (Barnyardgrass) = experiment: Preemergence herbicidal evaluation; format: in vivo, Echinochloa crus-galli; settings: rated 4-5 weeks after treatment
How it was run: as §1

[4] = rate 0.0313 kg/ha, 3-4 weeks after treatment
[5] = rate 0.0625 kg/ha, 3-4 weeks after treatment
[6] = rate 0.1250 kg/ha, 3-4 weeks after treatment
[7] = rate 0.2500 kg/ha, 3-4 weeks after treatment

Cn1c(C(F)(F)F)cc(=O)n(-c2cc(N=C3NC(=O)CS3)c(Cl)cc2F)c1=O [Compound 39, 3-{4-Chloro-2-fluoro-5-[(4-oxo-2-thiazolidinylidene)amino]phenyl}-1-methyl-6-(trifluoromethyl)-2,4(1H,3H)-pyrimidinedione]
Herbicidal rating MOOVA (MOOVA (Monochoria); [4]): 9.0
Herbicidal rating MOOVA (MOOVA (Monochoria); [5]): 9.0
Herbicidal rating MOOVA (MOOVA (Monochoria); [6]): 9.0
Herbicidal rating MOOVA (MOOVA (Monochoria); [7]): 9.0
Preemergence herbicidal rating GLXMAW ([1]; rate 0.0156 kg/ha): 0.0
Preemergence herbicidal rating GLXMAW ([1]; rate 0.0313 kg/ha): 0.0
Preemergence herbicidal rating GLXMAW ([1]; rate 0.0625 kg/ha): 0.0
Preemergence herbicidal rating GLXMAW ([1]; rate 0.1250 kg/ha): 5.0
Preemergence herbicidal rating GLXMAW ([1]; rate 0.2500 kg/ha): 7.0
Preemergence herbicidal rating GALAP (GALAP (Galium); rate 0.0156 kg/ha): 0.0
Preemergence herbicidal rating GALAP (GALAP (Galium); rate 0.0313 kg/ha): 0.0
Preemergence herbicidal rating GALAP (GALAP (Galium); rate 0.0625 kg/ha): 0.0
Preemergence herbicidal rating GALAP (GALAP (Galium); rate 0.1250 kg/ha): 6.0
Preemergence herbicidal rating GALAP (GALAP (Galium); rate 0.2500 kg/ha): 9.0
Postemergence herbicidal rating CHEAL ([2]; Rate 0.0158 kg/ha): 1.0
Postemergence herbicidal rating CHEAL ([2]; Rate 0.0315 kg/ha): 1.0
Postemergence herbicidal rating CHEAL ([2]; Rate 0.0630 kg/ha): 1.0
Postemergence herbicidal rating IPOHE ([3]; Rate 0.0158 kg/ha): 2.0
Postemergence herbicidal rating IPOHE ([3]; Rate 0.0315 kg/ha): 7.0
Postemergence herbicidal rating IPOHE ([3]; Rate 0.0630 kg/ha): 7.0
Preemergence herbicidal rating ECHCG (ECHCG (Barnyardgrass); rate 0.0156 kg/ha): 0.0
Preemergence herbicidal rating ECHCG (ECHCG (Barnyardgrass); rate 0.0313 kg/ha): 0.0
Preemergence herbicidal rating ECHCG (ECHCG (Barnyardgrass); rate 0.0625 kg/ha): 0.0
Preemergence herbicidal rating ECHCG (ECHCG (Barnyardgrass); rate 0.1250 kg/ha): 0.0
Preemergence herbicidal rating ECHCG (ECHCG (Barnyardgrass); rate 0.2500 kg/ha): 0.0

CCOC(=O)CN1C(=O)CN(C)C1=Nc1cc(-n2c(=O)cc(C(F)(F)F)n(C)c2=O)c(F)cc1Cl [Compound 25, Ethyl 2-{{2-chloro-5-[3,6-dihydro-3-methyl-2,6-dioxo-4-(trifluoromethyl)-1(2H)-pyrimidinyl]-4-fluorophenyl}imino}-3-methyl-5-oxo-1-imidazolidineacetate]
Herbicidal rating MOOVA (MOOVA (Monochoria); [4]): 9.0
Herbicidal rating MOOVA (MOOVA (Monochoria); [5]): 9.0
Herbicidal rating MOOVA (MOOVA (Monochoria); [6]): 9.0
Herbicidal rating MOOVA (MOOVA (Monochoria); [7]): 9.0
Preemergence herbicidal rating GLXMAW ([1]; rate 0.0156 kg/ha): 0.0
Preemergence herbicidal rating GLXMAW ([1]; rate 0.0313 kg/ha): 0.0
GLXMAW preemergence herbicidal rating ([1]; rate 0.0625 kg/ha): 2.0
GLXMAW preemergence herbicidal rating ([1]; rate 0.1250 kg/ha): 3.0
GLXMAW preemergence herbicidal rating ([1]; rate 0.2500 kg/ha): 6.0
Preemergence herbicidal rating GALAP (GALAP (Galium); rate 0.0156 kg/ha): 0.0
Preemergence herbicidal rating GALAP (GALAP (Galium); rate 0.0313 kg/ha): 0.0
GALAP preemergence herbicidal rating (GALAP (Galium); rate 0.0625 kg/ha): 0.0
GALAP preemergence herbicidal rating (GALAP (Galium); rate 0.1250 kg/ha): 0.0
GALAP preemergence herbicidal rating (GALAP (Galium); rate 0.2500 kg/ha): 0.0
CHEAL herbicidal rating ([2]; rate 0.0156 kg/ha): 2.0
CHEAL herbicidal rating ([2]; rate 0.0313 kg/ha): 5.0
CHEAL herbicidal rating ([2]; rate 0.0625 kg/ha): 9.0
IPOHE herbicidal rating ([3]; rate 0.0156 kg/ha): 9.0
IPOHE herbicidal rating ([3]; rate 0.0313 kg/ha): 9.0
IPOHE herbicidal rating ([3]; rate 0.0625 kg/ha): 9.0
Preemergence herbicidal rating ECHCG (ECHCG (Barnyardgrass); rate 0.0156 kg/ha): 0.0
Preemergence herbicidal rating ECHCG (ECHCG (Barnyardgrass); rate 0.0313 kg/ha): 0.0
ECHCG preemergence herbicidal rating (ECHCG (Barnyardgrass); rate 0.0625 kg/ha): 0.0
ECHCG preemergence herbicidal rating (ECHCG (Barnyardgrass); rate 0.1250 kg/ha): 0.0
ECHCG preemergence herbicidal rating (ECHCG (Barnyardgrass); rate 0.2500 kg/ha): 7.0

C#CCOC(=O)CC1SC(=Nc2cc(-n3c(=O)cc(C(F)(F)F)n(C)c3=O)c(F)cc2Cl)N(CC=C)C1=O (stereo not shown) [Compound 67, 2-Propynyl 3-allyl-2-{{2-chloro-5-[3,6-dihydro-3-methyl-2,6-dioxo-4-(trifluoromethyl)-1(2H)-pyrimidinyl]-4-fluorophenyl}imino}-4-oxo-5-thiazolidineacetate]
Herbicidal rating MOOVA (MOOVA (Monochoria); Rate 0.0313 kg/ha, rated 3 to 4 weeks after treatment): 9.0
Herbicidal rating MOOVA (MOOVA (Monochoria); Rate 0.0625 kg/ha, rated 3 to 4 weeks after treatment): 9.0
Herbicidal rating MOOVA (MOOVA (Monochoria); Rate 0.1250 kg/ha, rated 3 to 4 weeks after treatment): 9.0
Herbicidal rating MOOVA (MOOVA (Monochoria); Rate 0.2500 kg/ha, rated 3 to 4 weeks after treatment): 9.0
Preemergence herbicidal rating GLXMAW ([1]; rate 0.0156 kg/ha): 0.0
Preemergence herbicidal rating GLXMAW ([1]; rate 0.0313 kg/ha): 1.0
Preemergence herbicidal rating GLXMAW ([1]; rate 0.0625 kg/ha): 2.0
Preemergence herbicidal rating GLXMAW ([1]; rate 0.1250 kg/ha): 2.0
Preemergence herbicidal rating GLXMAW ([1]; rate 0.2500 kg/ha): 2.0
Preemergence herbicidal rating GALAP (GALAP (Galium); rate 0.0156 kg/ha): 0.0
Preemergence herbicidal rating GALAP (GALAP (Galium); rate 0.0313 kg/ha): 0.0
Preemergence herbicidal rating GALAP (GALAP (Galium); rate 0.0625 kg/ha): 0.0
Preemergence herbicidal rating GALAP (GALAP (Galium); rate 0.1250 kg/ha): 1.0
Preemergence herbicidal rating GALAP (GALAP (Galium); rate 0.2500 kg/ha): 0.0
CHEAL herbicidal rating ([2]; rate 0.0158 kg/ha): 4.0
CHEAL herbicidal rating ([2]; rate 0.0315 kg/ha): 6.0
CHEAL herbicidal rating ([2]; rate 0.0630 kg/ha): 9.0
IPOHE herbicidal rating ([3]; rate 0.0158 kg/ha): 9.0
IPOHE herbicidal rating ([3]; rate 0.0315 kg/ha): 9.0
IPOHE herbicidal rating ([3]; rate 0.0630 kg/ha): 9.0
Preemergence herbicidal rating ECHCG (ECHCG (Barnyardgrass); rate 0.0156 kg/ha): 0.0
Preemergence herbicidal rating ECHCG (ECHCG (Barnyardgrass); rate 0.0313 kg/ha): 0.0
Preemergence herbicidal rating ECHCG (ECHCG (Barnyardgrass); rate 0.0625 kg/ha): 0.0
Preemergence herbicidal rating ECHCG (ECHCG (Barnyardgrass); rate 0.1250 kg/ha): 1.0
Preemergence herbicidal rating ECHCG (ECHCG (Barnyardgrass); rate 0.2500 kg/ha): 1.0

CCOC(=O)CN1C(=O)C2(CC2)SC1=Nc1cc(-n2c(=O)cc(C(F)(F)F)n(C)c2=O)c(F)cc1Cl [Compound 15, Ethyl 5-{{2-chloro-5-[3,6-dihydro-3-methyl-2,6-dioxo-4-(trifluoromethyl)-1(2H)-pyrimidinyl]-4-fluorophenyl}imino}-7-oxo-4-thia-6-azaspiro[2.4]-heptane-6-acetate]
Herbicidal rating MOOVA (MOOVA (Monochoria); [4]): 9.0
Herbicidal rating MOOVA (MOOVA (Monochoria); [5]): 9.0
Herbicidal rating MOOVA (MOOVA (Monochoria); [6]): 9.0
Herbicidal rating MOOVA (MOOVA (Monochoria); [7]): 9.0
GLXMAW preemergence herbicidal rating ([1]; rate 0.0156 kg/ha): 0.5
GLXMAW preemergence herbicidal rating ([1]; rate 0.0313 kg/ha): 0.5
GLXMAW preemergence herbicidal rating ([1]; rate 0.0625 kg/ha): 1.0
GLXMAW preemergence herbicidal rating ([1]; rate 0.1250 kg/ha): 2.5
GLXMAW preemergence herbicidal rating ([1]; rate 0.2500 kg/ha): 5.5
GALAP preemergence herbicidal rating (GALAP (Galium); rate 0.0156 kg/ha): 0.0
GALAP preemergence herbicidal rating (GALAP (Galium); rate 0.0313 kg/ha): 0.0
GALAP preemergence herbicidal rating (GALAP (Galium); rate 0.0625 kg/ha): 9.0
GALAP preemergence herbicidal rating (GALAP (Galium); rate 0.1250 kg/ha): 9.0
GALAP preemergence herbicidal rating (GALAP (Galium); rate 0.2500 kg/ha): 9.0
CHEAL herbicidal rating ([2]; rate 0.0156 kg/ha): 3.0
CHEAL herbicidal rating ([2]; rate 0.0313 kg/ha): 3.0
CHEAL herbicidal rating ([2]; rate 0.0625 kg/ha): 9.0
CHEAL herbicidal rating ([2]; rate 0.1250 kg/ha): 9.0
IPOHE herbicidal rating ([3]; rate 0.0156 kg/ha): 6.0
IPOHE herbicidal rating ([3]; rate 0.0313 kg/ha): 9.0
IPOHE herbicidal rating ([3]; rate 0.0625 kg/ha): 9.0
IPOHE herbicidal rating ([3]; rate 0.1250 kg/ha): 9.0
ECHCG preemergence herbicidal rating (ECHCG (Barnyardgrass); rate 0.0156 kg/ha): 0.0
ECHCG preemergence herbicidal rating (ECHCG (Barnyardgrass); rate 0.0313 kg/ha): 0.5
ECHCG preemergence herbicidal rating (ECHCG (Barnyardgrass); rate 0.0625 kg/ha): 1.0
ECHCG preemergence herbicidal rating (ECHCG (Barnyardgrass); rate 0.1250 kg/ha): 2.0
ECHCG preemergence herbicidal rating (ECHCG (Barnyardgrass); rate 0.2500 kg/ha): 4.5

COC(=O)CCCN1C(=O)CSC1=Nc1cc(-n2c(=O)cc(C(F)(F)F)n(C)c2=O)c(F)cc1Cl [Compound 29, Methyl 2-{{2-chloro-5-[3,6-dihydro-3-methyl-2,6-dioxo-4-(trifluoromethyl)-1(2H)-pyrimidinyl]-4-fluorophenyl}imino}-4-oxo-3-thiazolidinebutyrate]
Herbicidal rating MOOVA (MOOVA (Monochoria); [4]): 0.0
Herbicidal rating MOOVA (MOOVA (Monochoria); [5]): 0.0
Herbicidal rating MOOVA (MOOVA (Monochoria); [6]): 0.0
Herbicidal rating MOOVA (MOOVA (Monochoria); [7]): 0.0
Preemergence herbicidal rating GLXMAW ([1]; rate 0.0625 kg/ha): 0.0
Preemergence herbicidal rating GLXMAW ([1]; rate 0.1250 kg/ha): 0.0
Preemergence herbicidal rating GLXMAW ([1]; rate 0.2500 kg/ha): 2.0
Preemergence herbicidal rating GALAP (GALAP (Galium); rate 0.0625 kg/ha): 0.0
Preemergence herbicidal rating GALAP (GALAP (Galium); rate 0.1250 kg/ha): 0.0
Preemergence herbicidal rating GALAP (GALAP (Galium); rate 0.2500 kg/ha): 0.0
Postemergence herbicidal rating CHEAL ([2]; Rate 0.0158 kg/ha): 1.0
Postemergence herbicidal rating CHEAL ([2]; Rate 0.0315 kg/ha): 1.0
Postemergence herbicidal rating CHEAL ([2]; Rate 0.0630 kg/ha): 5.0
Postemergence herbicidal rating IPOHE ([3]; Rate 0.0158 kg/ha): 3.0
Postemergence herbicidal rating IPOHE ([3]; Rate 0.0315 kg/ha): 9.0
Postemergence herbicidal rating IPOHE ([3]; Rate 0.0630 kg/ha): 9.0
Preemergence herbicidal rating ECHCG (ECHCG (Barnyardgrass); rate 0.0625 kg/ha): 0.0
Preemergence herbicidal rating ECHCG (ECHCG (Barnyardgrass); rate 0.1250 kg/ha): 0.0
Preemergence herbicidal rating ECHCG (ECHCG (Barnyardgrass); rate 0.2500 kg/ha): 0.0
